Reference: paper PMC6271950, “LC-MS/MS Determination and Pharmacokinetic Study of Dehydrocorydaline in Rat Plasma after Oral Administration of Dehydrocorydaline and Corydalis yanhusuo Extract” (Molecules, 2014)

Columns and labels:
[1] = Biliary cumulative excretion of unchanged DHC after a single oral dose; format: in vivo, Sprague-Dawley rats; conditions: rat, single oral dose 97.5 mg/kg
Experimental: (§1) The cumulative excretion of DHC in bile and urine after a single i.g. dose of DHC (97.5 mg/kg) was determined. […] However, the urinary cumulative excretion of DHC was little. The mean accumulated amount of DHC in urine over 96 h was 0.17% ± 0.13% of dose. […] There might be a huge “first pass” effect in liver after oral administration and account for the trace plasma concentration.
For biliary excretion study, four rats were light anesthetized by ether and a PE-10 cannula was implanted into the bile duct to collect bile. A single dose of DHC was administered as described above. Bile samples were collected at 0–2, 2−4, 4−6, 6−8, 8−10, 10−24 and 24−48 h post-dosing and kept at −20 °C after the volume of each collection was recorded.
(§2) A 200 μL aliquot of plasma was vortex mixed for 3 min with 200 μL of water and 50 μL of IS (800 ng/mL). After centrifugation at 9000 rpm for 10 min, all the supernatant was loaded onto an Oasis HLB cartridge (Waters, Milford, MA, USA), which was pre-conditioned with 1 mL of methanol followed by 1 mL of deionized water. The loaded-cartridge was sequentially washed with 1 mL of water and 1 mL of 20% methanol. […]
(§3) An Agilent 1100 system (Palo Alto, CA, USA) equipped with a vacuum degasser, a quaternary pump, and an auto-sampler were used. […] [26, 27, 28] were monitored for DHC and IS, respectively. […]

[2] = Stability of DHC in rat plasma (QC samples); format: in vitro ADME; conditions: for Cdec (mean ± S.D.): n = 6
Experimental: This is evidenced by the fact that the responses varied no more than ±10% over 24 h at the QC concentrations. After storage at ambient temperature for 12 h, the concentration of DHC in the plasma deviated less than ±13% from those in freshly-spiked plasma (Table 3).
The stability of DHC in rat plasma was evaluated under conditions that mimicked those likely to be encountered during sample storage and analytical processing. Six replicates of QC samples were analyzed for DHC. The QC samples were frozen and stored at −20 °C for a week. The concentration variation of the DHC in the prepared QC samples was detected after (i) three cycles of freezing and thawing, (ii) placement in an auto-sampler at 4 °C for 24 h, and (iii) storing at ambient temperature for 12 h.

[3] = Urinary cumulative excretion of DHC after a single oral dose; format: in vivo, Sprague-Dawley rats; conditions: rat, single oral dose 97.5 mg/kg, over 96 h
Experimental: as §1
For urinary excretion study, four rats were used. DHC was administered as described above. The animals were housed in stainless steel metabolic cages with free access to tap water. Urine was collected at 0–4, 4–8, 8–12, 12–24, 24–36, 36–60, 60–84 and 84–96 h post-dosing and kept at −20 °C after the volume of each collection was recorded.
as §2, with “methanol. The analytes were then eluted with 1 mL of methanol in water containing 2% formic acid.” for “methanol.”
as §3

[4] = Plasma pharmacokinetics of DHC after oral administration of pure DHC or EFY; format: in vivo, Sprague-Dawley rats; conditions: Sprague-Dawley, DHC in rat plasma, equivalent dose of 97.5 mg/kg DHC (EFY 483 mg/kg), n = 5, mean ± SD
Experimental: DHC is the most abundant quaternary protoberberine-type alkaloid in EFY and has clear cardiovascular pharmacological activity. A fully validated LC-ESI-MS/MS method was developed and was successfully applied to a pharmacokinetic study of DHC when given in the two different dosage forms (EFY and pure compound) via oral administration in rats. The doses of DHC and EFY were 97.5 mg/kg and 483 mg/kg (equivalent to 97.5 mg/kg DHC), respectively. The mean plasma concentration-time profiles of DHC after the two doses are illustrated in Figure 5 and the estimated pharmacokinetic parameters are presented in Table 5.
For pharmacokinetics study, the rats were divided into two groups (n = 5 per group). Doses of 97.5 mg/kg of DHC or 483 mg/kg of EFY (equivalent to 97.5 mg/kg DHC, 20.19% DHC in EFY) were all gavage administrated. Blood samples (500 μL) were withdrawn from the oculi chorioideae vein into heparinized tubes before dosing and subsequently at 15, 30 and 45 min and then at 1, 2, 4, 6, 8, 12 and 24 h following initial administration. After 1 h and 8 h, 2 mL of normal saline was injected into the caudal vein to compensate for blood loss. After centrifuging at 4000 rpm for 10 min, plasma samples were obtained and frozen at −20 °C until analysis.
A 200 μL aliquot of plasma was vortex mixed for 3 min with 200 μL of water and 50 μL of IS (800 ng/mL). After centrifugation at 9000 rpm for 10 min, all the supernatant was loaded onto an Oasis HLB cartridge (Waters, Milford, MA, USA), which was pre-conditioned with 1 mL of methanol followed by 1 mL of deionized water. The loaded-cartridge was sequentially washed with 1 mL of water and 1 mL of 20% methanol. The analytes were then eluted with 1 mL of methanol in water containing 2% formic acid. The collected eluate was evaporated to dryness at 40 °C under a gentle stream of nitrogen. The residue was reconstituted in 150 μL of 10% acetonitrile, and 30 μL of the resulting sample was injected into the LC-MS/MS system for assay. Bile and urine samples were all processed in a similar manner as the plasma samples.
An Agilent 1100 system (Palo Alto, CA, USA) equipped with a vacuum degasser, a quaternary pump, and an auto-sampler were used. Chromatographic separation was achieved on an Atlantis T3 column (100 mm × 2.1 mm, 5 μm; Waters, Milford, MA, USA), which was eluted with a mobile phase of acetonitrile and water (containing 0.8% formic acid and 10 mM ammonium acetate) (28:72, v/v). The mobile phase was delivered at a flow-rate of 0.25 mL/min and 40% of the eluate was introduced into an API 3000 triple-quadrupole mass spectrometer (Applied Biosystems MDS SCIEX, Concord, ON, Canada) equipped with a TurboIonSpray electrospray ionization (ESI) source. Detection was performed using positive-ion electrospray ionization in multiple reaction monitoring (MRM) modes. The transitions from molecular ion to dominant product ion m/z 366→351[M−CH3] and m/z 348→332[M−CH3−H] [26, 27, 28] were monitored for DHC and IS, respectively. The optimized working parameters for mass detection were as follows. The nebulizer, curtain, and collision-activated dissociation gases were set at 11, 7 and 11 (instrument units), respectively. The TurboIonSpray voltage and temperature were set at 4.5 kV and 400 °C, respectively. All data acquisition was performed using Analyst software (v1.4, AB MDS SCIEX).
Pharmacokinetic parameters were established from the plasma concentration–time data using non-compartmental analysis. The terminal elimination rate constant (Ke) was determined by linear regression of the terminal portion of the plasma concentration-time data. The elimination half-life (t1/2) was calculated using the expression: t1/2 = ln2/Ke(2) The area under the curve (AUC) for the plasma concentration-time trace from zero to the last plasma drug concentration (AUC0–t) was calculated using the trapezoidal rule. […]

[5] = parameters: method as in PMID 16956957; conditions: 1 h after oral administration, in situ intestinal loop; cited from earlier work
P-glycoprotein = tested on: P-glycoprotein; parameters: method as in PMID 12530470, PMID 12434406; conditions: efflux in Caco-2 cells and the liver; cited from earlier work
cytochrome P450 3A4 = tested on: cytochrome P450 3A4; parameters: method as in PMID 16133554; conditions: cited from earlier work
[6] = after three freeze-thaw cycles, Cnom 1.25 ng/mL
[7] = after three freeze-thaw cycles, Cnom 25 ng/mL
[8] = after three freeze-thaw cycles, Cnom 250 ng/mL
[9] = postpreparative stability (24 h, auto-sampler 4 °C), Cnom 1.25 ng/mL
[10] = postpreparative stability (24 h, auto-sampler 4 °C), Cnom 25 ng/mL
[11] = postpreparative stability (24 h, auto-sampler 4 °C), Cnom 250 ng/mL
[12] = short-term temperature stability (12 h, ambient), Cnom 1.25 ng/mL
[13] = short-term temperature stability (12 h, ambient), Cnom 25 ng/mL
[14] = short-term temperature stability (12 h, ambient), Cnom 250 ng/mL

COc1cc2c(cc1OC)-c1c(C)c3ccc(OC)c(OC)c3c[n+]1CC2 [DHC, dehydrocorydaline]
mean accumulated amount of DHC in bile ([1]; in 2 h): 12.2% ± 7.38% | total biliary excretion of unchanged DHC ([1]; up to 48 h): 60.04% ± 24.66% | variation in the concentration from nominal concentration ([2]; after three cycles of freezing and thawing, rat plasma): ≤ 15% | Relative Error [2, 6]: −0.27% | Cdec (mean ± S.D.) [2, 6]: 1.25 ± 0.1 ng/mL | Relative Error [2, 7]: 10% | Cdec (mean ± S.D.) [2, 7]: 27.5 ± 0.87 ng/mL | Relative Error [2, 8]: 9.07% | Cdec (mean ± S.D.) [2, 8]: 272.67 ± 8.14 ng/mL | Relative Error [2, 9]: −5.47% | Cdec (mean ± S.D.) [2, 9]: 1.18 ± 0.06 ng/mL | Relative Error [2, 10]: 4.8% | Cdec (mean ± S.D.) [2, 10]: 26.2 ± 0.86 ng/mL | Relative Error [2, 11]: 8.14% | Cdec (mean ± S.D.) [2, 11]: 270.33 ± 9.42 ng/mL | variation of responses ([2]; processed samples in auto-sampler at 4 °C over 24 h, QC concentrations): ≤ 10% | Relative Error [2, 12]: −3.87% | Cdec (mean ± S.D.) [2, 12]: 1.2 ± 0.1 ng/mL | Relative Error [2, 13]: −12.13% | Cdec (mean ± S.D.) [2, 13]: 21.97 ± 0.51 ng/mL | Relative Error [2, 14]: −7.73% | Cdec (mean ± S.D.) [2, 14]: 230.67 ± 15.96 ng/mL | deviation of concentration from freshly-spiked plasma ([2]; storage at ambient temperature for 12 h, rat plasma): < 13% | mean accumulated amount of DHC in urine [3]: 0.17% ± 0.13% | AUC(0-inf) [4]: 59.1 ± 11.5 ng·h/mL | AUC(0-t) [4]: 52.4 ± 12.8 ng·h/mL | Cmax [4]: 9.4 ± 4.18 ng/mL | Tmax [4]: 1 h | half-life [4]: 7.93 ± 1.34 h | k el ([4]; read-out: Ke (converted)): 2.5e-05 s⁻¹

COc1ccc2cc3[n+](cc2c1OC)CCc1cc2c(cc1-3)OCO2 [berberine]
absorbed amount [5]: 33.6 % of the given dose | P-glycoprotein substrate (P-glycoprotein): substrate of P-glycoprotein | cytochrome P450 3A4 inhibition (cytochrome P450 3A4): weak cytochrome P450 3A4 inhibitor
